Assay results taken from ChEMBL document CHEMBL5528002, “Identification of selective 5-LOX and FLAP inhibitors as novel anti-inflammatory agents by ligand-based virtual screening” (Eur J Med Chem, 2024).

Experiments:
[1] = target: T1, Polyunsaturated fatty acid 5-lipoxygenase (Homo sapiens, UniProt P09917); experiment: Inhibition of human recombinant 5-LOX expressed in Escherichia coli BL21(DE3) using arachidonic acid as substrate preincubated with compound for 15 mins followed by substrate and CaCl2 addition measured after 10 mins by RP-HPLC analysis
T1 sequence (P09917 whole entry): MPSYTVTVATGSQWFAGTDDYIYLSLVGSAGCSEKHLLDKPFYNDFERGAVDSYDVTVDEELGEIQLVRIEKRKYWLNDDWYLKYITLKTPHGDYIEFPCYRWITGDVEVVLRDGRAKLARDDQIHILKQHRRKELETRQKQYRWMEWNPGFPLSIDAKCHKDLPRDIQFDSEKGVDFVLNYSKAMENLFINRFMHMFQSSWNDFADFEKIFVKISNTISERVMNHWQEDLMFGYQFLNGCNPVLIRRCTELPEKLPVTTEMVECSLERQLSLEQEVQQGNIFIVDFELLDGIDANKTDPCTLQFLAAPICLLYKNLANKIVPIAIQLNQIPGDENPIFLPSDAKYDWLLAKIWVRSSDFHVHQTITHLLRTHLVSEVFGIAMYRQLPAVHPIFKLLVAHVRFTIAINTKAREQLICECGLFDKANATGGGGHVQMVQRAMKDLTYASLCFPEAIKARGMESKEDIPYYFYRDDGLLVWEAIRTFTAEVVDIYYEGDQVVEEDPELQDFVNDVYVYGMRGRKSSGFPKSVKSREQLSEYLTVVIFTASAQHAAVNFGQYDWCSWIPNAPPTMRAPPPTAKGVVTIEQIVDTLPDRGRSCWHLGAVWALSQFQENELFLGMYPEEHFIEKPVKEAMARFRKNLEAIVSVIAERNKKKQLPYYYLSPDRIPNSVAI

Macrophage cell line [2] = experiment: Effect on lipid mediator formation in human M1-like phenotype MDM cells by measuring 17-HDHA formation at 10 uM pre-incubated for 15 mins followed by SACM stimulation and measured after 90 mins by UPLC-MS/MS analysis relative to control; assay type: functional; conditions: time 105 min, 1.75 h
Macrophage cell line [3] = experiment: Effect on lipid mediator formation in human M2-like phenotype MDM cells by measuring 15-HETE formation at 10 uM pre-incubated for 15 mins followed by SACM stimulation and measured after 90 mins by UPLC-MS/MS analysis (reference value: 18426 +/- 5001 pg/ml); assay type: functional; conditions: time 105 min, 1.75 h
Macrophage cell line [4] = experiment: Effect on lipid mediator formation in human M2-like phenotype MDM cells by measuring EPA formation at 10 uM pre-incubated for 15 mins followed by SACM stimulation and measured after 90 mins by UPLC-MS/MS analysis (reference value: 23813 +/- 1138 pg/ml); assay type: functional; conditions: time 105 min, 1.75 h
Macrophage cell line [5] = experiment: Effect on lipid mediator formation in human M2-like phenotype MDM cells by measuring LTB4 formation at 10 uM pre-incubated for 15 mins followed by SACM stimulation and measured after 90 mins by UPLC-MS/MS analysis relative to control; assay type: functional; conditions: time 105 min, 1.75 h
Macrophage cell line [6] = experiment: Effect on lipid mediator formation in human M2-like phenotype MDM cells by measuring 17-HDHA formation at 10 uM pre-incubated for 15 mins followed by SACM stimulation and measured after 90 mins by UPLC-MS/MS analysis relative to control; assay type: functional; conditions: time 105 min, 1.75 h
Macrophage cell line [7] = experiment: Effect on lipid mediator formation in human M2-like phenotype MDM cells by measuring EPA formation at 10 uM pre-incubated for 15 mins followed by SACM stimulation and measured after 90 mins by UPLC-MS/MS analysis relative to control; assay type: functional; conditions: time 105 min, 1.75 h
[8] = target: T2, Polyunsaturated fatty acid 5-lipoxygenase (Homo sapiens) (UniProt P09917); experiment: Inhibition of 5-LOX in human Neutrophil at 10 uM using arachidonic acid as substrate preincubated with compound for 15 mins followed by substrate and A23187 addition measured after 10 mins by RP-HPLC analysis relative to control; assay type: cell-based; conditions: time 25.0 min
T2 sequence (whole entry): T1 sequence (P09917 whole entry)

[9] = target: T3, Bifunctional epoxide hydrolase 2 (Homo sapiens) (UniProt P34913); experiment: Inhibition of human sEH at 10 uM relative to control
T3 sequence (whole entry): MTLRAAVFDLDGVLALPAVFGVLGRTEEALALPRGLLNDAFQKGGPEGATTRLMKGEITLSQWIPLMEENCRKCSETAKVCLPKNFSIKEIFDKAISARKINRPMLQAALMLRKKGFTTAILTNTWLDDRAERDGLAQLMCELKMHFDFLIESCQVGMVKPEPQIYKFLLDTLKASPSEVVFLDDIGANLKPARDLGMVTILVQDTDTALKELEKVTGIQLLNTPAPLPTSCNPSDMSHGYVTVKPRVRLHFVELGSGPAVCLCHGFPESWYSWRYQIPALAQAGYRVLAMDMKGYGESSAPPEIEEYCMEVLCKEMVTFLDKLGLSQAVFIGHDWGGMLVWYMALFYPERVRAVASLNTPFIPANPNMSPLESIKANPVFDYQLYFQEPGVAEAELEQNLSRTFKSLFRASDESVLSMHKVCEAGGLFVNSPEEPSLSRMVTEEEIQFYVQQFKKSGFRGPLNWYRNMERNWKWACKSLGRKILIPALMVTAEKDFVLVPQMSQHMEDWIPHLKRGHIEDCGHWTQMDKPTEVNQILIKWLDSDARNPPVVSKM

| Compound | IC50 [1] | Activity (Macrophage cell line [2]) | Activity (Macrophage cell line [3]) | Activity (Macrophage cell line [4]) | Activity (Macrophage cell line [5]) | Activity (Macrophage cell line [6]) | Activity (Macrophage cell line [7]) | inhibition [8] | inhibition [9] |
| --- | --- | --- | --- | --- | --- | --- | --- | --- | --- |
| COc1ccc(C2=C/C(=C/c3ccc(O)cc3O)C(=O)O2)cc1 | > 10 µM | 106% | 25017 pg/mL | 24465 pg/mL | 4% | 173% | 103% | > 50% | > 35% |
| Oc1ccc(CCC2CCC(c3ccc(O)cc3)CO2)cc1 (stereo not drawn) | > 10 µM | 135% | 26605 pg/mL | 28427 pg/mL | 14% | 149% | 119% | > 50% | > 35% |
